Assay results published in patent US20240239790A1, “7-Morpholino-1,6-Naphthyridin-5-yl Derivatives and Pharmaceutical Compositions Thereof Useful as DNA-PK Inhibitor” (adMare Therapeutics Society, priority 2021, published 2024).

Each compound was assayed against T1, DNA-PK phosphorylation at Serine 2056 (Homo sapiens, UniProt P78527) (assay: Cellular Assay for Inhibition of DNA-PK Phosphorylation at Serine 2056 in FaDu cells (sandwich ELISA, neocarzinostatin)). Settings: pSer2056 DNA-PK, Table 3.
T1 construct: FaDu cells were purchased from ATCC; host or cells: FaDu
Assay type: cell-based
Procedure: FaDu cells were purchased from ATCC and maintained in MEM alpha medium (Life Technologies, cat. no. 12561) supplemented with 10% fetal bovine serum, and 1% GlutaMAX at 37° C. supplemented with 5% CO2. 50,000 cells were seeded to each well of a 96-well cell culture plate in 50 μL of culture medium and incubated for 16-24 hours. Three-fold serially diluted compounds were prepared in DMSO. Culture media was used to prepare compound treatments to 0.3% DMSO (dimethyl sulphoxide) content. Compound treatments were added to the cells for 1 hour prior incubation, followed by the addition of neocarzinostatin in fresh culture medium to 1 μg/mL final concentration for an additional 2 hours incubation to induce DNA DSBs (double-strand breaks). DMSO controls were incubated with fresh culture medium alone for the additional two hours incubation. The cells were then lysed and frozen at −20° C. Cell lysates were thawed on wet ice and protein concentrations quantified by BCA Protein Assay (Thermo #23225). Lysis buffer was used to normalize lysates by protein content and all lysates were then investigated by sandwich ELISA by means of DNA-PK-specific antibodies (Abcam ab44815: total DNA-PK; ab124918: phosphoserine-2056 DNA-PK) in sandwich ELISA format on the MSD S600MM platform (MesoScale Discovery). % inhibition was calculated for all data points: =1−(DATA_PT−AVERAGE(DMSO controls))/(AVERAGE(NCS controls)−AVERAGE(DMSO controls)). Logarithm of the molar concentration of compound was plotted against percent inhibition to calculate IC50 values, with curve fit settings for data fit to log(inhibitor) vs. normalized response—Variable slope using curve fit software (GraphPad Prism).

Structure (SMILES) | IC50 [nM]
CS(=O)(=O)Nc1cnc2cc(N3CCOCC3)nc(O[C@H]3CC[C@@H](Nc4ncc(N5CCNCC5)cn4)CC3)c2c1 [LFA2014, N-[7-morpholino-5-[4-[(5-piperazin-1-ylpyrimidin-2-yl)amino]cyclohexoxy]-1,6-naphthyridin-3-yl]methanesulfonamide] | 100 to 1000
Cc1nc(N[C@H]2CC[C@@H](Oc3nc(N4CCOCC4)cc4ncc(NS(C)(=O)=O)cc34)CC2)ncc1N1CCN(C)CC1 [LFA2038, N-[5-[4-[[4-methyl-5-(4-methylpiperazin-1-yl)pyrimidin-2-yl]amino]cyclohexoxy]-7-morpholino-1,6-naphthyridin-3-yl]methanesulfonamide] | < 100
CN1CCN(CCc2cnc(N[C@H]3CC[C@@H](Oc4nc(N5CCOCC5)cc5ncc(NS(C)(=O)=O)cc45)CC3)nc2)CC1 [LFA2031, N-[5-[4-[[5-[2-(4-methylpiperazin-1-yl)ethyl]pyrimidin-2-yl]amino]cyclohexoxy]-7-morpholino-1,6-naphthyridin-3-yl]methanesulfonamide] | < 100
CS(=O)(=O)Nc1cnc2cc(N3CCOCC3)nc(O[C@H]3CC[C@@H](Nc4ncc(OCCN5CCNCC5)cn4)CC3)c2c1 [LFA2022, N-[7-morpholino-5-[4-[[5-(2-piperazin-1-ylethoxy)pyrimidin-2-yl]amino]cyclohexoxy]-1,6-naphthyridin-3-yl]methanesulfonamide] | < 100
CN1CCN(CCOc2ccnc(N[C@H]3CC[C@@H](Oc4nc(N5CCOCC5)cc5ncc(NS(C)(=O)=O)cc45)CC3)n2)CC1 [LFA2026, N-[5-[4-[[4-[2-(4-methylpiperazin-1-yl)ethoxy]pyrimidin-2-yl]amino]cyclohexoxy]-7-morpholino-1,6-naphthyridin-3-yl]methanesulfonamide] | 100 to 1000
CS(=O)(=O)Nc1cnc2cc(N3CCOCC3)nc(O[C@H]3CC[C@@H](Nc4ncc(N5CCOCC5)cn4)CC3)c2c1 [LFA2029, N-[7-morpholino-5-[4-[(5-morpholinopyrimidin-2-yl)amino]cyclohexoxy]-1,6-naphthyridin-3-yl]methanesulfonamide] | < 100
Oc1cnc2cc(N3CCOCC3)nc(O[C@H]3CC[C@@H](Nc4ncc(N5CCN(CC(F)F)CC5)cn4)CC3)c2c1 [LFA2012] | < 100
Cc1nc(N[C@H]2CC[C@@H](Oc3nc(N4CCOCC4)cc4ncc(NS(C)(=O)=O)cc34)CC2)ncc1OCCN1CCN(C)CC1 [LFA2039, N-[5-[4-[[4-methyl-5-[2-(4-methylpiperazin-1-yl)ethoxy]pyrimidin-2-yl]amino]cyclohexoxy]-7-morpholino-1,6-naphthyridin-3-yl]methanesulfonamide] | < 100
CN1CC[C@@H](Oc2cnc(N[C@H]3CC[C@@H](Oc4nc(N5CCOCC5)cc5ncc(NS(C)(=O)=O)cc45)CC3)nc2)C1 [LFA2037, N-[5-[4-[[5-[(3R)-1-methylpyrrolidin-3-yl]oxypyrimidin-2-yl]amino]cyclohexoxy]-7-morpholino-1,6-naphthyridin-3-yl] methanesulfonamide] | < 100
CS(=O)(=O)Nc1cnc2cc(N3CCOCC3)nc(O[C@H]3CC[C@@H](Nc4ncc(OCCN)cn4)CC3)c2c1 [LFA2027, N-[5-[4-[[5-(2-aminoethoxy)pyrimidin-2-yl]amino]cyclohexoxy]-7-morpholino-1,6-naphthyridin-3-yl]methanesulfonamide] | < 100
CS(=O)(=O)Nc1cnc2cc(N3CCOCC3)nc(O[C@H]3CC[C@@H](Nc4ncc(N5CCN(C6COC6)CC5)cn4)CC3)c2c1 [LFA2019, N-[7-morpholino-5-[4-[[5-[4-(oxetan-3-yl)piperazin-1-yl]pyrimidin-2-yl]amino]cyclohexoxy]-1,6-naphthyridin-3-yl]methanesulfonamide] | < 100
CS(=O)(=O)Nc1cnc2cc(N3CCOCC3)nc(O[C@H]3CC[C@@H](Nc4ncc(N5CCN(CC(F)F)CC5)cn4)CC3)c2c1 [LFA2018, N-[5-[4-[[5-[4-(2,2-difluoroethyl)piperazin-1-yl]pyrimidin-2-yl]amino]cyclohexoxy]-7-morpholino-1,6-naphthyridin-3-yl]methanesulfonamide] | < 100
CS(=O)(=O)Nc1cnc2cc(N3CCOCC3)nc(O[C@H]3CC[C@@H](Nc4ncc(CCN5CCOCC5)cn4)CC3)c2c1 [LFA2030, N-[7-morpholino-5-[4-[[5-(2-morpholinoethyl)pyrimidin-2-yl]amino]cyclohexoxy]-1,6-naphthyridin-3-yl]methanesulfonamide] | < 100
CS(=O)(=O)Nc1cnc2cc(N3CCOCC3)nc(O[C@H]3CC[C@@H](Nc4ncc(CN5CCOCC5)cn4)CC3)c2c1 [LFA2020, N-[7-morpholino-5-[4-[[5-(morpholinomethyl)pyrimidin-2-yl]amino]cyclohexoxy]-1,6-naphthyridin-3-yl]methanesulfonamide] | < 100

Second part, the compound after the results:

IC50 [nM] | Structure (SMILES)
10000 to 30000 | CC(Oc1cnc2cc(N3CCOCC3)nc(O[C@H]3CC[C@@H](Nc4cncc(C(F)(F)F)n4)CC3)c2c1)c1cnc([N+](=O)[O-])n1C (stereo partly drawn) [LFA2096, N-[4-[[3-[1-(3-methyl-2-nitro-imidazol-4-yl)ethoxy]-7-morpholino-1,6-naphthyridin-5-yl]oxy]cyclohexyl]-6-(trifluoromethyl)pyrazin-2-amine]
< 100 | CS(=O)(=O)Nc1cnc2cc(N3CCOCC3)nc(O[C@H]3CC[C@@H](Nc4ncc(OCCN5CCOCC5)cn4)CC3)c2c1 [LFA2023, N-[7-morpholino-5-[4-[[5-(2-morpholinoethoxy)pyrimidin-2-yl]amino]cyclohexoxy]-1,6-naphthyridin-3-yl]methanesulfonamide]
< 100 | Cc1nc(N[C@H]2CC[C@@H](Oc3nc(N4CCOCC4)cc4ncc(NS(C)(=O)=O)cc34)CC2)ncc1OCCN1CCOCC1 [LFA2040, N-[5-[4-[[4-methyl-5-(2-morpholinoethoxy)pyrimidin-2-yl]amino]cyclohexoxy]-7-morpholino-1,6-naphthyridin-3-yl]methanesulfonamide]
< 100 | CS(=O)(=O)Nc1cnc2cc(N3CCOCC3)nc(O[C@H]3CC[C@@H](Nc4ncc(N5CCN(CCF)CC5)cn4)CC3)c2c1 [LFA2013]
< 100 | CS(=O)(=O)Nc1cnc2cc(N3CCOCC3)nc(O[C@H]3CC[C@@H](Nc4ncc(N5CCN(CC(F)(F)F)CC5)cn4)CC3)c2c1 [LFA2017, N-[7-morpholino-5-[4-[[5-[4-(2,2,2-trifluoroethyl)piperazin-1-yl]pyrimidin-2-yl]amino]cyclohexoxy]-1,6-naphthyridin-3-yl]methanesulfonamide]
< 100 | CN1CC[C@H](Oc2cnc(N[C@H]3CC[C@@H](Oc4nc(N5CCOCC5)cc5ncc(NS(C)(=O)=O)cc45)CC3)nc2)C1 [LFA2036, N-[5-[4-[[5-[(3S)-1-methylpyrrolidin-3-yl]oxypyrimidin-2-yl]amino]cyclohexoxy]-7-morpholino-1,6-naphthyridin-3-yl] methanesulfonamide]
100 to 1000 | CS(=O)(=O)Nc1cnc2cc(N3CCOCC3)nc(O[C@H]3CC[C@@H](Nc4ncc(C5=CCNCC5)cn4)CC3)c2c1 [LFA2021, N-[7-morpholino-5-[4-[[5-(1,2,3,6-tetrahydropyridin-4-yl)pyrimidin-2-yl]amino]cyclohexoxy]-1,6-naphthyridin-3-yl]methanesulfonamide]
< 100 | CN1CCN(CCOc2cnc(N[C@H]3CC[C@@H](Oc4nc(N5CCOCC5)cc5ncc(O)cc45)CC3)nc2)CC1 [LFA2034, 5-[4-[[5-[2-(4-methylpiperazin-1-yl)ethoxy]pyrimidin-2-yl]amino]cyclohexoxy]-7-morpholino-1,6-naphthyridin-3-ol]
< 100 | CN1CCc2nc(N[C@H]3CC[C@@H](Oc4nc(N5CCOCC5)cc5ncc(O)cc45)CC3)ncc2C1 [LFA2078, 5-[4-[(6-methyl-7,8-dihydro-5H-pyrido[4,3-d]pyrimidin-2-yl)amino]cyclohexoxy]-7-morpholino-1,6-naphthyridin-3-ol]
100 to 1000 | CS(=O)(=O)Nc1cnc2cc(N3CCOCC3)nc(O[C@H]3CC[C@@H](Nc4ncc5c(n4)CCNC5)CC3)c2c1 [LFA2005, N-[7-morpholino-5-[4-(5,6,7,8-tetrahydropyrido[4,3-d]pyrimidin-2-ylamino)cyclohexoxy]-1,6-naphthyridin-3-yl]methanesulfonamide]
100 to 1000 | CS(=O)(=O)Nc1cnc2cc(N3CCOCC3)nc(O[C@H]3CC[C@@H](Nc4ncc5c(n4)CNCC5)CC3)c2c1 [LFA2004, N-[7-morpholino-5-[4-(5,6,7,8-tetrahydropyrido[3,4-d]pyrimidin-2-ylamino)cyclohexoxy]-1,6-naphthyridin-3-yl]methanesulfonamide]
< 100 | CS(=O)(=O)Nc1cnc2cc(N3CCOCC3)nc(O[C@H]3CC[C@@H](Nc4ncc(OCCO)cn4)CC3)c2c1 [LFA2028, N-[5-[4-[[5-(2-hydroxyethoxy)pyrimidin-2-yl]amino]cyclohexoxy]-7-morpholino-1,6-naphthyridin-3-yl]methanesulfonamide]
< 100 | Oc1cnc2cc(N3CCOCC3)nc(O[C@H]3CC[C@@H](Nc4ncc(OCCN5CCOCC5)cn4)CC3)c2c1 [LFA2035, 7-morpholino-5-[4-[[5-(2-morpholinoethoxy)pyrimidin-2-yl]amino]cyclohexoxy]-1,6-naphthyridin-3-ol]
